This note sets out measurements from patent US20050019825A9, “Common ligand mimics: pseudothiohydantoins” (priority 2002, published 2005).

As a reminder, the IC50 is the concentration needed to halve the response being measured. A word on the inhibition: it is the share of the control response that was lost under treatment.

Assay [1] has as its target T1, alcohol dehydrogenase (ADH) (Saccharomyces cerevisiae, UniProt P00330).
T1 construct: 10 μl of ADH from Bakers Yeast; host or cells: bakers yeast
T1 sequence (P00330 1-348): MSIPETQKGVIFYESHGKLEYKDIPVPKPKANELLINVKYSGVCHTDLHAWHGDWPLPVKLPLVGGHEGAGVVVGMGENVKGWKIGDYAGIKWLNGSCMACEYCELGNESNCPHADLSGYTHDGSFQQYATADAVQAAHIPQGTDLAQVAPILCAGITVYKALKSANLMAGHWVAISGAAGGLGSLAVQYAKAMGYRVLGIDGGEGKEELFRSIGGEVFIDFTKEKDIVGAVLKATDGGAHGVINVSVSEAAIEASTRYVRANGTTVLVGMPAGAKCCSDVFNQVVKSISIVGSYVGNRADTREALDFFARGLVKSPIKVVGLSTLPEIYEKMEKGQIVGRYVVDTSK
The assay is described as follows: ADH kinetic assay, spectrophotometric reduction of NAD+ (340 nm). In kind it is biochemical, Bakers Yeast. Here is the method: For ADH analysis, the compounds were screened using a kinetic protocol that spectrophotometrically evaluates reduction of NAD+.
Stock solutions of each of the reagents were prepared in the following concentrations. Dilutions of the stock solutions were prepared prior to running the assay in the concentrations indicated below.
The ADH reaction was monitored at 340 nm prior to and after addition of the inhibitor to detect background reaction with the inhibitor. Solutions of 100 μl of the inhibitors in DMSO were prepared to provide a final DMSO concentration of 5% of the total assay volume. These solutions were incubated for 6 minutes at 25° C. in a 990 μl of a solution containing 0.1 M HEPES, pH 8.0, 80 μM NAD+, and 130 mM of ethanol. The reaction was then initiated with 10 μl of ADH from Bakers Yeast ([…]; 1:400 dilution of 1.0 mg/ml). After the enzyme was added, the solution was mixed for 20 seconds, and the reaction was run for 10 minutes. After a 50 second lag, the samples were read in a Cary spectrophotometer at 340 nm. Reading of the samples was continued until 300 seconds. […] The substrate was kept at a level at least 10 times the Km. The final concentration of […] was about 2.5 mM.
Where only a simple read was desired, as in the case of NAD+ concentration determination, 13 μl (10 M stock) of ethanol was used to drive the reaction, and 10 μl of pure enzyme (1 mg/ml) was used. NAD+ was soluble at 2 mM, which allowed the concentration determination step to be skipped. In this situation, the procedure was as follows. All of the ingredients except for the enzyme were mixed together. The solution was mixed well and the absorbance at 340 nm read. The enzyme was added and read again at OD 340 after the absorbance stopped changing, generally 10 to 15 minutes after the enzyme was added.

Assay [2] addresses dihydrofolate reductase (DHFR) (UniProt P00374). The assay is described as follows: DHFR kinetic assay, spectrophotometric oxidation of NADH (340 nm). In kind it is biochemical. Here is the method: For DHFR analysis, the compounds were screened using a kinetic protocol that spectrophotometrically evaluates oxidation of NADH.
Stock solutions of each of the reagents were prepared in the following concentrations. Dilutions of the stock solutions were prepared prior to running the assay in the concentrations indicated below. H2 folate was dissolved in DMSO to about 10 mM and then diluted with water to a concentration of 0.1 mM.
The DHFR reaction was monitored at 340 nm prior to and after addition of the inhibitor to detect background reaction with the inhibitor. Solutions of 100 μl of the inhibitors in DMSO were prepared to provide a final DMSO concentration of 5% of the total assay volume. These solutions were incubated for 6 minutes at 25° C. in a 992 μl of a solution containing 0.1 M Tris-HCl, pH 7.0, 150 mM KCl, 5 μM H2 folate, and 52 μM NADH. The oxidation reaction was then initiated with 8 μl of DHFR (0.047 mg/ml). After the enzyme was added, the solution was mixed for 20 seconds, and the reaction was run for 10 minutes. After a 50 second lag, the samples were read in a Cary spectrophotometer at 340 nm. Reading of the samples was continued until 300 seconds. Cuvette #1 always contained the control reaction (no inhibitor), and cuvette #2 always contained the positive control reaction in which Cibacron Blue at 3 μM was substituted for inhibitor to yield 50 to 70% inhibition. The substrate was kept at a level at least 10 times the Km.

Assay [3] addresses 1-deoxy-D-xylulose-5-phosphate reductase (DOXPR) (Escherichia coli, UniProt P45568). Briefly: DOXPR kinetic assay, spectrophotometric oxidation of NADPH (340 nm). In kind it is biochemical. As for the experimental part:
For DOXPR analysis, the compounds were screened using a kinetic protocol that spectrophotometrically evaluates oxidation of NADPH.
Stock solutions of each of the reagents were prepared in the following concentrations. Dilutions of the stock solutions were prepared prior to running the assay in the concentrations indicated below. DOXPR was diluted in 10 mM HEPES at a pH of 7.4.
The DOXPR reaction was monitored at 340 nm prior to and after addition of the inhibitor to detect background reaction with the inhibitor. Solutions of the inhibitors in DMSO were prepared to provide a final DMSO concentration of 5% of the total assay volume. These solutions were incubated for 6 minutes at 25° C. in a 990 μl of a solution containing 0.1 M HEPES, pH 7.4, 1 mM MnCl2 1.15 mM DOXP, and 8 μM NADPH. The oxidation reaction was then initiated with 10 μl of DOXP reductoisomerase (10 μg/ml). After the enzyme was added, the solution was mixed for 20 seconds, and the reaction was run for 10 minutes. After a 50 second lag, the samples were read in a Cary spectrophotometer at 340 nm. Reading of the samples was continued until 300 seconds. Cuvette #1 contained the control reaction (no inhibitor), and cuvette #2 contained the positive control reaction in which Cibacron Blue at 10.32 μM was substituted for inhibitor to yield 70 to 80% inhibition. The substrate was kept at a level at least 10 times the Km.

The mark [4] stands for this setting: common ligand mimics, Examples 23/24; read-out: IC50 for DHFR.
Setting [5] is: common ligand mimics, Examples 23/24, read-out: IC50 for DOXPR.
The mark [6] stands for this setting: read-out: IC50 for DHFR; common ligand mimics, Examples 23/24.

Read-outs that look alike come from different tables or passages of the source.

Chain of dihydrofolate reductase (DHFR) (P00374 whole entry): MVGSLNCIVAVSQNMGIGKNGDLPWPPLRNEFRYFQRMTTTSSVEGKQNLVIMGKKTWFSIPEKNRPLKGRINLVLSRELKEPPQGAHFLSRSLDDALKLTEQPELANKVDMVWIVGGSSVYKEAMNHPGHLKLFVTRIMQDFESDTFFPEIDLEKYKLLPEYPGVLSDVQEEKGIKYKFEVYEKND
Chain of 1-deoxy-D-xylulose-5-phosphate reductase (DOXPR) (P45568 whole entry): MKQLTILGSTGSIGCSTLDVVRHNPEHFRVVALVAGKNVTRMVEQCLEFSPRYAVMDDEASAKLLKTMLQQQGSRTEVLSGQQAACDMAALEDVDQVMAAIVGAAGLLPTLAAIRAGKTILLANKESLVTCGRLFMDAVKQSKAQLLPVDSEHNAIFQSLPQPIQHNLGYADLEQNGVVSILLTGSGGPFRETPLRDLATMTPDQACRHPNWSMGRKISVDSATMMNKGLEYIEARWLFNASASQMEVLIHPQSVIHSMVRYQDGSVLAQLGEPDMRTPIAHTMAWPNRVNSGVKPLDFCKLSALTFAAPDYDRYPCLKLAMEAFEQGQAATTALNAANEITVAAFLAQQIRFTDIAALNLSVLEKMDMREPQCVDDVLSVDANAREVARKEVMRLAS

As to `N=C1NC(=O)C(=Cc2ccc(C(=O)O)cc2)S1` [4-(2-imino-4-oxo-thiazolidin-5-ylidenemethyl)-benzoic acid], the IC50 in assay [1] is above 100 µM; in assay [2] (setting [4]) it was above 20 µM; in assay [3] (setting [5]) it was above 25 µM. Besides, in assay [1] (Example 24 (FIG. 6)), the “inhibition of ADH (in words)” value is “no inhibition”.

On to `COc1cc(O)ccc1C=C1SC(=N)NC1=O` [5-(4-hydroxy-2-methoxy-benzylidene)-2-imino-thiazolidin-4-one], for which the IC50 in assay [2] (setting [4]) and in assay [3] (setting [5]) was above 100 µM throughout.

Take `COc1cc(C=C2SC(N)=NC2=O)ccc1O` [5-(4-hydroxy-3-methoxy-benzylidene)-2-imino-thiazolidin-4-one]: the IC50 in assay [1], in assay [2] (setting [6]) and in assay [3] was above 100 µM each time.

On to `N=C1NC(=O)C(=Cc2ccc(O)c([N+](=O)[O-])c2)S1` [5-(4-hydroxy-3-nitro-benzylidene)-2-imino-thiazolidin-4-one], for which the results for the IC50 in assay [1], in assay [2] (setting [6]) and in assay [3] were above 150 µM, above 75 µM and above 100 µM, respectively.

As for `Nc1c(S(=O)(=O)O)cc(Nc2ccc(Nc3nc(Cl)nc(Nc4ccccc4S(=O)(=O)O)n3)c(S(=O)(=O)O)c2)c2c1C(=O)c1ccccc1C2=O` [Cibacron Blue, reference compound], the inhibition at 15.5 µM in assay [1] (Cibacron Blue at 15.5 μM, read-out: inhibition of ADH, positive control) is 50 to 60%. The inhibition at 10.32 µM in assay [3] (Cibacron Blue at 10.32 μM, read-out: inhibition of DOXPR, positive control) is 70 to 80%.
